Measured values reported in US20260207720A1, “COMPOSITIONS AND METHODS FOR TREATING FUNGAL INFECTIONS” (MUCPharm Pty Ltd, priority 2022, published 2026).
Converted amounts (≈) assume the structure as drawn. Like-named read-outs stand apart in the source and are kept apart here.

Assays:
Format in all cases: cell-based
[1] = system: Aspergillus fumigatus (ATCC strain 13697); assay: Broth dilution susceptibility test, MIC and percent growth (Example 7); conditions: for MIC: FIGS. 13a, 14a; for effect at lower concentrations (in words): Voriconazole 1 μg/ml and 0.5 μg/ml, Caspofungin 0.25 μg/ml and 0.125 μg/ml
Experimental: (§1) A. Preparation of inoculum: • 1. Candida glabrata was grown on Sabouraud dextrose agar (SDA) at 37° C. for 24-48 hrs. • 2. Following this, 5 colonies of 1 mm diameter were picked and suspended in 5 mL sterile saline (0.9% saline) and vortexed for 15 seconds. • 3. Working suspension is prepared as a 1:100 dilution from stock suspension with RPMI 1640 culture medium. • 4. The cell density is adjusted with a spectrophotometer to the transmittance produced by a 0.5 McFarland standard (0.08 to 0.1) OD at 625 nm wavelength.
(§2) • 1. For Bromelain, a stock concentration of 1 mg/ml Bromelain solution was prepared in RPMI media and diluted to test concentrations of 62.4, 31.2, 15.6 and 7.8 μg/ml in RPMI 1640 media. • 2. Acetylcysteine stock concentration is 200 mg/ml, diluted to 40, 20, 10, and 5 mg/ml concentrations in RPMI 1640 medium. • 3. These concentrations are prepared at 2× of the required concentrations in the final assay plate.
(§3) Antifungal stock concentrations are as follows— • 1. Amphotericin B, Stock concentration: 250 μg/ml in water. • 2. Posaconazole, Original concentration: 300 mg in 16.7 ml, Working stock concentration: 1 mg/ml in DMSO. • 3. Fluconazole, Original concentration: 100 mg in 50 ml, Working stock concentration: 1 mg/ml in DMSO. • 4. The final concentration was prepared in RPMI 1640 media and concentrations range was 0.01-0.5 μg/mL for amphotericin B, 0.01-2 μg/mL for posaconazole and 0.01-64 μg/mL for fluconazole. • 5. These concentrations were prepared at 2× of the required concentrations in the final assay plate.
(§4) • 1. Wells of the 96-well plates were inoculated with appropriate concentrations and volumes of drugs. • 2. Sterility control and growth controls are included in each plate. • 3. Each 96-well plate (except the control wells) contains 100 μL of double strength (twice the final antifungal drug) concentrations. • 4. 100 μL of the fungal suspension is added to 96-well plates (except the sterility control wells). • 5. The growth control wells contained 100 μL of sterile drug-free medium and 100 μL of inoculum suspension, while the sterility control wells contained 200 μl of sterile drug-free medium. • 6. Plates are then incubated at 37° C. and read at 625,430, and 530 nm wavelengths. • 7. Data from 24 hours and absorbance at 625 nm were used for analysis.
These experiments were conducted to determine the efficacy of BromAc alone and in combination with existing antifungal drugs against Aspergillus fumigatus (ATCC strain 13697).
The method used in these experiments is essentially the same as that described above in Example 5. In these experiments, however, echinocandins such as […] Caspofungin are used in place of the azole antifungals described in earlier examples.

[2] = system: Candida Krusei (ATCC strain 6258); assay: Broth dilution susceptibility test, MIC and percent growth (Example 6)
Experimental: as §1, §2, §3, §4
These experiments were conducted to determine the effect of BromAc alone and in combination with existing antifungal drugs against Candida Krusei (ATCC strain 6258).
The method used in these experiments is essentially the same as that described above in Example 5.

[3] = system: Candida glabrata (clinical isolate); assay: Broth dilution susceptibility test, MIC and percent growth (Example 5)
Experimental: These experiments were conducted to determine the effect of BromAc alone and in combination with existing antifungal drugs against Candida glabrata (clinical isolate).
as §1, §2, §3, §4

[4] = system: Candida auris; assay: Susceptibility assay of antifungals with BromAc (Example 4); conditions: for Observed inhibitory effect: Candida aurus, antifungal in combination with BromAc (5 mg/ml Acetylcysteine+12.5 μg/ml Bromelain) vs alone
Experimental: (§5) The in vitro antifungal properties of Bromelain, Acetylcysteine, BromAc, Amphotericin B, Isavuconazole, Fluconazole and Posaconazole were determined using a broth microdilution method in round bottom 96 well plates in accordance with standard procedures defined by the Clinical Laboratory Standards Institute (CLSI).
(§6) Unless otherwise described, fungal cultures were grown on potato dextrose agar plates at 35° C. until mature (appearance of conidia) and used to prepare suspensions in sterile water. Suspensions were diluted in RPMI 1:60. These suspensions were then added in equal volume to solutions containing the candidate species described above and incubated at 35° C. for 24 hr. Plates were then analysed for fungal growth inhibition and MIC values determined.
(§7) BromAc (5 mg/ml Acetylcysteine+12.5 μg/ml Bromelain) was used in combination with Amphotericin B, Isavuconazole, Posaconazole and Fluconazole. The MIC values of these four antifungal agents against the fungus described below were calculated and compared with their corresponding MIC values in the presence of BromAc, using the standard susceptibility assays described above.
(§8) The fungal strains set out in Table 2, all of which were sourced from a range of clinical isolates from Australian hospitals, were used in these experiments to gain a further understanding of the efficacy of BromAc in combination with Amphotericin B, Isavuconazole, Posaconazole and Fluconazole.

[5] = system: Candida glabrata; assay: as above; conditions: for Observed inhibitory effect: antifungal in combination with BromAc (5 mg/ml Acetylcysteine+12.5 μg/ml Bromelain) vs alone
Experimental: as §5, §6, §7, §8

[6] = system: Candida kruseii; assay: as above; conditions: antifungal in combination with BromAc (5 mg/ml Acetylcysteine+12.5 μg/ml Bromelain) vs alone
Experimental: as §5, §6, §7, §8

[7] = system: Candida tropicalis; assay: as above; conditions: antifungal in combination with BromAc (5 mg/ml Acetylcysteine+12.5 μg/ml Bromelain) vs alone
Experimental: as §5, §6, §7, §8

[8] = system: Cryptococcus; assay: as above; conditions: for Observed inhibitory effect: antifungal in combination with BromAc (5 mg/ml Acetylcysteine+12.5 μg/ml Bromelain) vs alone; for isolates with more than 10× increase: antifungal with BromAc
Experimental: as §5, §6, §7, §8

[9] = system: Rhizopus arrhizus; assay: Chequerboard broth microdilution antifungal susceptibility testing (MIC)
Experimental: as §6, with “Suspensions were diluted in RPMI 1:60.” left out, “determined. […] [MICA (combined)/MICA]+[MICB (combined)/MICB] MICA (combined) is the MIC of drug A when both drugs (i.e. drug A and drug B) are present and MICA is the MIC of drug A used in isolation. Similarly, MICB (combined) is the MIC of drug B when both drugs are present and MICB is the MIC of drug B used in isolation.” for “determined.”

[10] = system: Rhizopus microsporus; assay: as above
Experimental: as §6, with “Suspensions were diluted in RPMI 1:60.” left out, “determined. […] [MICA (combined)/MICA]+[MICB (combined)/MICB] MICA (combined) is the MIC of drug A when both drugs (i.e. drug A and drug B) are present and MICA is the MIC of drug A used in isolation. Similarly, MICB (combined) is the MIC of drug B when both drugs are present and MICB is the MIC of drug B used in isolation.” for “determined.”

[11] = system: Cunninghamella; assay: Susceptibility assay of antifungals with BromAc (Example 4); conditions: antifungal in combination with BromAc (5 mg/ml Acetylcysteine+12.5 μg/ml Bromelain) vs alone
Experimental: as §5, §6, §7, §8

[12] = system: Scedosporium; assay: as above; conditions: antifungal in combination with BromAc (5 mg/ml Acetylcysteine+12.5 μg/ml Bromelain) vs alone
Experimental: as §5, §6, §7, §8

[13] = system: Mucor circinelloides; assay: as above
Experimental: as §5, §6, §7, §8

[14] = system: Lomentospora; assay: as above; conditions: antifungal in combination with BromAc (5 mg/ml Acetylcysteine+12.5 μg/ml Bromelain) vs alone
Experimental: as §5, §6, §7, §8

[15] = system: Licthemia; assay: as above; conditions: antifungal in combination with BromAc (5 mg/ml Acetylcysteine+12.5 μg/ml Bromelain) vs alone
Experimental: as §5, §6, §7, §8

[16] = system: Fusarium; assay: as above; conditions: antifungal in combination with BromAc (5 mg/ml Acetylcysteine+12.5 μg/ml Bromelain) vs alone
Experimental: as §5, §6, §7, §8

[17] = system: Aspergillus; assay: as above; conditions: antifungal in combination with BromAc (5 mg/ml Acetylcysteine+12.5 μg/ml Bromelain) vs alone
Experimental: as §5, §6, §7, §8

CC[C@H](C)C[C@H](C)CCCCCCCCC(=O)N[C@H]1C[C@@H](O)[C@@H](NCCN)NC(=O)[C@@H]2[C@@H](O)CCN2C(=O)[C@H]([C@H](O)CCN)NC(=O)[C@H]([C@H](O)[C@@H](O)c2ccc(O)cc2)NC(=O)[C@@H]2C[C@@H](O)CN2C(=O)[C@H]([C@@H](C)O)NC1=O [Caspofungin]
MIC [1]: > 1 µg/mL
effect at lower concentrations (in words) [1]: almost no inhibitory effect

OC(Cn1cncn1)(Cn1cncn1)c1ccc(F)cc1F [Fluconazole]
MIC ([2]; Pichia kudriavzevii, ATCC6258, 50% growth inhibition, FIG. 11): 32 µg/mL
inhibition at 32 µg/mL ([2]; Pichia kudriavzevii, ATCC6258, Posaconazole 1 ug/ml, Fluconazole 32 μg/ml, read-out: activity (growth inhibition) at its MIC): 50%
effect at lower doses / concentrations compared to GC (in words) ([2]; below the MIC (Posaconazole 0.03 μg/ml)): no efficacy
MIC ([3]; Nakaseomyces glabratus, 50% growth inhibition, 24 hours, 625 nm): > 32 µg/mL
effect at lower concentration compared to growth control (in words) ([3]; concentrations lower than the MIC): no change
Observed inhibitory effect [4]: No effect
Observed inhibitory effect [5]: Strong (Strong = 5-10x (or greater) inhibitory effect)
Observed inhibitory effect [6]: Strong (Strong = 5-10x (or greater) inhibitory effect)
Observed inhibitory effect [7]: Strong (Strong = 5-10x (or greater) inhibitory effect)
Observed inhibitory effect [8]: Strong (Strong = 5-10x (or greater) inhibitory effect)
isolates with more than 10× increase [8]: 5 of 5

C[C@@H](c1nc(-c2ccc(C#N)cc2)cs1)[C@](O)(Cn1cncn1)c1cc(F)ccc1F [Isavuconazole]
isolates with 10× increase ([9]; Rhizopus Arrhizus, antifungal with BromAc): 6 of 8
MIC ([9]; Rhizopus arrhizus, eight R. arrhizus strains, read-out: MIC, average over the strains): 0.8 µg/mL (≈ 1.83 µM)
MIC ([9]; Rhizopus arrhizus, isolate R. archizus 1, BromAc at constant concentration where combined, read-out: MIC): 1 µg/mL
MIC ([9]; Rhizopus arrhizus, isolate R. archizus 2, BromAc at constant concentration where combined, read-out: MIC): 1 µg/mL
MIC ([9]; Rhizopus arrhizus, isolate R. archizus 3, BromAc at constant concentration where combined, read-out: MIC): 1 µg/mL
MIC ([9]; Rhizopus arrhizus, isolate R. archizus 8, BromAc at constant concentration where combined, read-out: MIC): 1 µg/mL
MIC ([9]; Rhizopus arrhizus, isolate R. arrhizus 4, BromAc at constant concentration where combined, read-out: MIC): 1 µg/mL
MIC ([9]; Rhizopus arrhizus, isolate R. arrhizus 5, BromAc at constant concentration where combined, read-out: MIC): 0.5 µg/mL
MIC ([9]; Rhizopus arrhizus, isolate R. arrhizus 6, BromAc at constant concentration where combined, read-out: MIC): 1 µg/mL
MIC ([9]; Rhizopus arrhizus, isolate R. arrhizus 7, BromAc at constant concentration where combined, read-out: MIC): 0.5 µg/mL
Observed inhibitory effect ([9]; Rhizopus arrhizus, antifungal in combination with BromAc (5 mg/ml Acetylcysteine+12.5 μg/ml Bromelain) vs alone): Strong (Strong = 5-10x (or greater) inhibitory effect)
MICs, range over the strains ([9]; eight R. arrhizus strains): 0.5 to 2 µg/mL
isolates with more than 10× increase ([10]; Rhizopus microspores, antifungal with BromAc): 9 of 10
MIC ([10]; Rhizopus microsporus, eight R. microsporus strains, read-out: MIC, average over the strains): 0.9 µg/mL (≈ 2.06 µM)
MIC ([10]; Rhizopus microsporus, isolate R. microsporus 1, BromAc at constant concentration where combined, read-out: MIC): 0.2 µg/mL
MIC ([10]; Rhizopus microsporus, isolate R. microsporus 2, BromAc at constant concentration where combined, read-out: MIC): 0.5 µg/mL
MIC ([10]; Rhizopus microsporus, isolate R. microsporus 3, BromAc at constant concentration where combined, read-out: MIC): 0.5 µg/mL
MIC ([10]; Rhizopus microsporus, isolate R. microsporus 4, BromAc at constant concentration where combined, read-out: MIC): 1 µg/mL
MIC ([10]; Rhizopus microsporus, isolate R. microsporus 5, BromAc at constant concentration where combined, read-out: MIC): 0.5 µg/mL
MIC ([10]; Rhizopus microsporus, isolate R. microsporus 6, BromAc at constant concentration where combined, read-out: MIC): 0.5 µg/mL
MIC ([10]; Rhizopus microsporus, isolate R. microsporus 7, BromAc at constant concentration where combined, read-out: MIC): 0.5 µg/mL
Observed inhibitory effect ([10]; Rhizopus microsporus, antifungal in combination with BromAc (5 mg/ml Acetylcysteine+12.5 μg/ml Bromelain) vs alone): Strong (Strong = 5-10x (or greater) inhibitory effect)
MICs, range over the strains ([10]; eight R. microsporus strains): 0.5 to 1 µg/mL
Observed inhibitory effect [11]: Possible
Observed inhibitory effect [12]: No effect
isolates with more than 10× increase ([4]; Candida auris, antifungal with BromAc): 4 of 5
Observed inhibitory effect [4]: Strong (Strong = 5-10x (or greater) inhibitory effect)
Observed inhibitory effect ([13]; antifungal in combination with BromAc (5 mg/ml Acetylcysteine+12.5 μg/ml Bromelain) vs alone): Strong (Strong = 5-10x (or greater) inhibitory effect)
isolates with increased sensitivity ([13]; antifungal with BromAc): 2 of 2
Observed inhibitory effect [5]: Strong (Strong = 5-10x (or greater) inhibitory effect)
isolates with more than a 10× increase in sensitivity ([5]; antifungal with BromAc): 5 of 5
Observed inhibitory effect [14]: No effect
Observed inhibitory effect [6]: Strong (Strong = 5-10x (or greater) inhibitory effect)
Observed inhibitory effect [7]: Strong (Strong = 5-10x (or greater) inhibitory effect)
Observed inhibitory effect [15]: Possible
Observed inhibitory effect [8]: Strong (Strong = 5-10x (or greater) inhibitory effect)
isolates with more than 10× increase [8]: 5 of 5
Observed inhibitory effect [16]: No effect
Observed inhibitory effect [17]: Moderate (Moderate = 1-5x inhibitory effect)

C[C@@H](c1ncncc1F)[C@](O)(Cn1cncn1)c1ccc(F)cc1F [Voriconazole]
MIC ([1]; Aspergillus fumigatus, ATCC13697, read-out: MIC): 2 µg/mL
effect at lower concentrations (in words) [1]: almost no inhibitory effect
